# Columns and labels:
# [1] = system: Peripheral Sensory Neuropathy Induced by Paclitaxel in Mice; assay: cold plate test, paclitaxel-induced peripheral sensory neuropathy; type: in vivo; details: duloxetine 30 mg/kg daily
# Experimental: The effect of the Lentinus edodes mycelium extract on the paresthesia to cold stimulation was tested by performing the cold plate test. The mice in the three groups in the above (1) were put on a cold plate set to 10° C. and a response time for avoidance (a latency) was measured. The shorter latency means that the mouse avoids the cold stimulation of the cold plate more.
# In the present test, the mice were divided into four groups by a difference in test objects. As in Example 1, male Balb/c mice of 6 to 7 weeks old were used. The mice were divided into a total of four groups, a control group, a paclitaxel administration group, and two different paclitaxel and Lentinus edodes mycelium extract administration groups (paclitaxel+Lentinus edodes mycelium extract administration groups). […] Further, a group in which the Lentinus edodes mycelium extract was administered to each mouse once a day at a dose of 1 g/kg (hereinafter referred to as “1 g/kg administration group”) and a group in which the Lentinus edodes mycelium extract was administered to each mouse once a day at a dose of 2 g/kg (hereinafter referred to as “2 g/kg administration group”) were prepared.
# Evaluation was performed in the same manner as in the test with oxaliplatin. Referring to FIG. 4, the horizontal axis indicates the elapsed time after administration (days) and the vertical axis indicates the avoidance response time (seconds). Open circles with a solid line represent the control group. Filled circles with a solid line represent the group in which only paclitaxel was administered. Open squares with a dash line and filled squares with a dash line represent the groups in which paclitaxel and the Lentinus edodes mycelium extract were administered at the same time (paclitaxel+Lentinus edodes mycelium extract administration groups). […] When the difference with the control group was determined to be significant using a significance level of 5%, the data were marked by “*”. […]
# [2] = system: Peripheral Sensory Neuropathy Induced by Vincristine in Mice; assay: von Frey test, vincristine-induced peripheral sensory neuropathy; type: in vivo; details: duloxetine 30 mg/kg daily
# Text: The mice in the three groups in the above (1) were put in a cage and a filament having a strength of 0.16 g was pressed on the plantar surface of the leg to measure the number of times (a score) of avoidance response.
# In the present test, the mice were divided into three groups by a difference in test objects. As in Example 1, male Balb/c mice of 6 to 7 weeks old were used. The mice were divided into a total of three groups, a control group, a vincristine administration group, and a vincristine and Lentinus edodes mycelium extract administration group (vincristine+Lentinus edodes mycelium extract administration group).
# Vincristine was administered to each mouse once a day at a dose of 0.2 mg/kg. Further, the Lentinus edodes mycelium extract was administered to each mouse once a day at a dose of 2 g/kg.
# Further, the number of times of administration was set to once a week (on Day 0, Day 7, and Day 14) for vincristine and daily (from Day 0 to Day 15) for the Lentinus edodes mycelium extract in both the von Frey test and the cold plate test below.
# Evaluation was performed in the same manner as in the test with oxaliplatin in Example 1. Referring to FIG. 5, the horizontal axis indicates an elapsed time after administration (days) and the vertical axis indicates the avoidance response (scores). Open circles with a solid line represent the control group. Filled circles with a solid line represent the group in which only vincristine was administered. Open squares with a dash line represent the group in which vincristine and the Lentinus edodes mycelium extract were administered at the same time (vincristine+Lentinus edodes mycelium extract administration group). When the difference with the control group was determined to be significant using a significance level of 5%, the data were marked by “*”.
# In the present test, the mice were divided into six groups by a difference in test objects. As in Example 1, male Balb/c mice of 6 to 7 weeks old were used. […]
smiles,measurement,setting,value
CNCC[C@H](Oc1cccc2ccccc12)c1cccs1 [duloxetine],"latency compared with paclitaxel administration group, cold plate test",[1]; 3-day delayed after paclitaxel,almost the same as that in the paclitaxel administration group
same,"latency, cold plate test",[1]; 6-day delayed after paclitaxel,same tendency as that in the duloxetine 3-day delayed administration group
same,"avoidance score compared with vincristine administration group, von Frey test",[2]; 3-day delayed after vincristine,almost the same score as that in the vincristine administration group
same,"avoidance score, von Frey test",[2]; 6-day delayed after vincristine,same tendency as that in the duloxetine 3-day delayed administration group

# — patent US11793845B2, “Composition for ameliorating peripheral sensory neuropathy” (KINKI UNIVERSITY, priority 2016, dated 2023)
